The text below walks through data of publication PMC8333053, “Synthesis and biological screening of new thiadiazolopyrimidine-based polycyclic compounds” (Scientific Reports, 2021).

The structures appear in SMILES notation. Values after ≈ are worked out from the molar mass of the structure shown.

Type in all cases: cell-based
In data set [1] the test system is Chromobacterium violaceum (ATCC 12472). The experiment in a line: Antiquorum-sensing assay (violacein pigment inhibition). The note with it: Chromobacterium violaceum, ATCC12472, 48 h, read-out: Diameter of quorum-sensing inhibition C. violaceum. From the text:
The synthesized thiadiazolopyrimidine-based compounds were screened for their antiquorum-sensing (anti-QS) inhibition activity by the Chromobacterium violaceum (ATCC 12472) technique using catechin as the standard compound[28]–[30]. The QS technique of C. violaceum was remarked by the detection of violacein (violet pigment)[31],[32]. Meanwhile, the reactivity of the synthesized thiadiazolopyrimidine-containing derivatives as drugs depends on their efficiency to inhibit the liberation of violacein during the QS technique. The QS inhibition was determined by the following equation: QS inhibition (mm) = (r2 − r1), where r1 is the inhibition radius of the bacterial growth and r2 is the inhibition radius for growth as well as the release of the pigment.
The anti-QS inefficiency was evaluated using the previous technique mentioned in the literature.
The culture was prepared by growing Ch. violaceum ATCC 12472 in LB broth and incubated for 16–18 h in an orbital incubator running at 28°C and 150 rpm. The culture was then adjusted to 0.5 McFarland standard (ca. 1 × 10^6 CFU/mL). Ch. violaceum (50 µL) was inoculated into LB agar (50 mL), poured into plates, and solidified. Wells were made in LB agar medium using cork borer. The tested compounds were dissolved in DMSO 100% in Eppendorf tubes for final concentration of 5 mg/mL, and 50 µL of the test solution was applied into the wells. The positive control (catechin) was also added at the same concentration and volume to each plate. In addition, DMSO (control solvent) was added to each plate. […] Bacterial growth inhibition by the tested compounds was measured as radius (r1) in mm, while both growth and pigment inhibition was measured as radius (r2) in mm. The pigment inhibition (QS inhibition) was determined by subtracting bacterial growth inhibition (r1) from the total radius (r2); thus, QS inhibition = (r2 - r1) in mm.

Another data set relates to Bacillus cereus UW85. The experiment in a line: Antibacterial MIC, two-fold serial dilution. The note with it: Gram +ve bacteria, LB broth, 37°C, 24 h, visual (no turbidity), read-out: MIC B. cereus. On the procedure:
(§1) The antimicrobial activity of the synthesized thiadiazolopyrimidine compounds was studied toward diverse pathogenic strains, such as gram-positive bacteria (Staphylococcus aureus ATCC 29213 and Bacillus cereus UW85), gram-negative bacteria (Escherichia coli ATCC 12435 and Pseudomonas aeruginosa ATCC 29260), and fungi (Candida albicans and Aspergillus fumigatus 293). The assessment was performed through the two-fold dilution technique using Ampicillin (antibacterial) and Fluconazole (antifungal) as the reference drugs[28],[29]. The minimal inhibitory concentration (MICs, µg/mL) of the synthesized derivatives for prohibiting microbial growth was determined through the visual detection (no turbidity) technique.
(§2) The synthesized thiadiazolopyrimidine-based compounds were evaluated and adopted for antibacterial and antifungal effectiveness using the approved procedure[38],[39].
(§3) Minimal inhibitory concentrations (MICs) were determined by serial dilution technique using 96-multiwell microtiter plates. The investigated compounds were dissolved in DMSO 100% to prepare stock solutions of 5000 µg/mL. Two-fold serial dilutions of the dissolved compounds were performed in LB broth providing eight different concentrations (1250, 625, 312.5, 156, 78, 39, 19.5 µg/mL). Overnight cultures of microorganisms were diluted to 1 ×10^6 CFU/mL in LB broth, and 20 mL of the diluted cultures were added to the test solutions (50 mL) in the wells (one well per concentration per bacterial strain). The plates were incubated at 37°C for 24 h. MIC was detected visually as the least concentration inhibiting bacterial growth (no turbidity) and the activity of the tested compounds was estimated in comparison to ampicillin.

For data set [2], the system named is Escherichia coli ATCC 12435. The experiment in a line: Antibacterial MIC, two-fold serial dilution. Particulars: ATCC12435, Gram −ve bacteria, LB broth, 37°C, 24 h, visual (no turbidity). On the procedure: as §1, §2, §3
The subject of data set [3] is Staphylococcus aureus ATCC 29213. The data set can be described thus: Antibacterial MIC, two-fold serial dilution. The note with it: ATCC29213, Gram +ve bacteria, LB broth, 37°C, 24 h, visual (no turbidity), read-out: MIC S. aureus. On the procedure: as §1, §2, §3
In data set [4] the test system is Pseudomonas aeruginosa ATCC 29260. The data set can be described thus: Antibacterial MIC, two-fold serial dilution. Particulars: ATCC29260, Gram −ve bacteria, LB broth, 37°C, 24 h, visual (no turbidity), read-out: MIC P. aeruginosa. As to the method: as §1, §2, §3
The nature of data set [5]: MTT cytotoxicity assay on normal cells. Particulars: human, WI38 normal fibroblast cells. On the procedure:
The cytotoxicity of the prepared tri-and tetra-cyclic thiadiazolopyrimidine compounds were examined toward various cancer cell lines, such as liver and breast cancer (MCF-7), prostate cancer (PC3), laryngeal carcinoma (Hep-2), carcinoma (HepG2), and standard normal fibroblast cells (WI38) using the MTT assay[33] at the National Research Centre (Egypt). The cytotoxicity (Table 3) toward 50% inhibition of the cell viability (IC50 values) was assessed using 5-fluorouracil (5-Fu) as the standard anticancer drug.
The synthesized compounds were subjected to the MTT cytotoxicity assay on the basis of the cited literature.
MTT cytotoxicity assay: The technical method of MTT assay depends on the reduction of yellow 3-(4,5-methyl-2-thiazolyl)-2,5-diphenyl-2H-tetrazolium bromide (MTT) into purple formazan product, mainly by mitochondrial reductase activity inside the living cells. The cells used in cytotoxicity assay were cultured in RPMI 1640 medium supplemented with 10% fetal calf serum. Cells suspended in the medium (2×10^4 cells/mL) were plated in 96-well culture plates and incubated at 37 °C in a 5% CO2 incubator for 12 hours. The tested sample (2 μL) was added to the cells (2×10^4) in 96-well plates and cultured at 37 °C for 3 days. The cultured cells were mixed with 20 μL of MTT solution and incubated for 4 hours at 37 °C. The supernatant was carefully removed from each well, the formazan crystals were dissolved after addition of DMSO (100 μL) for each well to form the cellular reduction of MTT. After mixing with a mechanical plate mixer, the absorbance of each well was measured by a microplate reader using a test wavelength of 570 nm. The results were expressed as the IC50 values, which inducing 50% inhibition of cell growth of the treated cells when compared to the growth of control cells.
On the technique in general: Tetrazolium assays rely on reduction of a dye to a coloured formazan, in cell work by metabolically active cells.

The test system of the next data set is Candida albicans. The data set can be described thus: Antifungal MIC, two-fold serial dilution. Particulars: Fungi, glucose minimal medium, 30°C, 48 h, visual (no turbidity). As to the method: as §1, §2
(§4) Minimal inhibitory concentrations (MICs) were determined by serial dilution technique using 96-multiwell microtiter plates. The investigated compounds were dissolved in DMSO 100% to prepare stock solutions of 5000 µg/mL. Two-fold serial dilutions of the dissolved compounds were performed in glucose minimal medium providing eight different concentrations (1250, 625, 312.5, 156, 78, 39, 19.5 µg/mL). The microorganisms were diluted to 1 ×10^3 SFU/mL in glucose minimal medium, and 20 µL of the diluted culture was added to the test solutions (50 µL) in the wells (one well per concentration). The plates were incubated at 30°C for 48 h. MIC was detected visually as the least concentration inhibiting fungal growth (no turbidity) and the activity of the tested compounds was estimated in comparison to fluconazole.

Data set [6] deals with Aspergillus fumigatus 293. The data set can be described thus: Antifungal MIC, two-fold serial dilution. Particulars: Fungi, glucose minimal medium, 30°C, 48 h, visual (no turbidity). As to the method:
as §1, §2, §4

By MIC is commonly meant the lowest concentration found to suppress growth. In general, IC50 refers to the point on the concentration scale where inhibition reaches its midpoint. As to `COc1ccc(N=Nc2c(O)nn3c(N)c4c(=O)nc5scnn5c4nc23)cc1` [Compound 17b, 6-Amino-9-hydroxy-10-(4-methoxyphenylazo)-5H-pyrazolo[1′,5′:1,2]pyrimido[5,4-e][1,3,4]thiadiazolo[3,2-a]pyrimidin-5-one], the zone of inhibition at 5000 µg/mL in data set [1] worked out at 12 mm. The minimal inhibitory concentration (MIC) with Bacillus cereus UW85 worked out at 625 µg/mL (≈ 1530 µM); in data set [2] it was 19.5 µg/mL (≈ 47.6 µM); in data set [3], 1250 µg/mL (≈ 3050 µM); in data set [4], 39 µg/mL (≈ 95.3 µM); against Candida albicans, 1250 µg/mL (≈ 3050 µM); in data set [6], 1250 µg/mL (≈ 3050 µM). Moreover, the IC50 at 3 days in data set [5] was determined as 58.4 ± 2.29 µM.

`COc1ccc(N=Nc2c(N)nn3c(N)c4c(=O)nc5scnn5c4nc23)cc1` [Compound 16b, 6,9-Diamino-10-(4-methoxyphenylazo)-5H-pyrazolo[1′,5′:1,2]pyrimido[5,4-e][1,3,4]thiadiazolo[3,2-a]pyrimidin-5-one]: the zone of inhibition at 5000 µg/mL in data set [1] was 12 mm. The MIC was > 1250 µg/mL with Bacillus cereus UW85; 19.5 µg/mL (≈ 47.7 µM) in data set [2]; 625 µg/mL (≈ 1530 µM) in data set [3]; 78 µg/mL (≈ 191 µM) in data set [4]; > 1250 µg/mL in the data set with Candida albicans; > 1250 µg/mL in data set [6]. The same compound gave an IC50 at 3 days in data set [5] of 62.3 ± 3.03 µM.

For the compound `Cc1nn(-c2ccccc2)c2c1C1C(=C(N)O2)C(=O)N=C2SC=NN21` (stereo not shown) [Compound 10b, 6-Amino-10-methyl-8-phenyl-8,10b-dihydro-5H-pyrazolo[4′,3′:5,6]pyrano[3,4-e][1,3,4]thiadiazolo[3,2-a]pyrimidin-5-one], the zone of inhibition at 5000 µg/mL in data set [1] stood at 9 mm. Further, the MIC in the data set on Bacillus cereus UW85 is 625 µg/mL (≈ 1770 µM); in data set [2], 312 µg/mL (≈ 887 µM); in data set [3] it was 625 µg/mL (≈ 1770 µM); in data set [4] it was 625 µg/mL (≈ 1770 µM); in the data set with Candida albicans, > 1250 µg/mL; in data set [6], > 1250 µg/mL. The IC50 at 3 days in data set [5] amounted to 25.4 ± 0.62 µM.

On to `CC1=C(C(=O)c2ccccc2)C2C(=C(N)O1)C(=O)N=C1SC=NN12` (stereo not shown) [Compound 8b, 6-Amino-9-benzoyl-8-methyl-5H,9aH-pyrano[3,4-e][1,3,4]thiadiazolo[3,2-a]pyrimidin-5-one], for which, in data set [1], the zone of inhibition at 5000 µg/mL was 12 mm. Also, the MIC worked out at 312 µg/mL (≈ 918 µM) in the data set with Bacillus cereus UW85; 1250 µg/mL (≈ 3670 µM) in data set [2]; 156 µg/mL (≈ 458 µM) in data set [3]; 312 µg/mL (≈ 918 µM) in data set [4]; 156 µg/mL (≈ 458 µM) in the data set with Candida albicans; 1250 µg/mL (≈ 3670 µM) in data set [6]. Besides, in data set [5], the IC50 at 3 days was found to be 42.8 ± 1.06 µM.

`Nc1c2c(=O)nc3scnn3c2nc2nncn12` [Compound 12, 6-Amino-5H-[1,2,4]triazolo[4′,3′:1,2]pyrimido[5,4-e][1,3,4]thiadiazolo[3,2-a]pyrimidin-5-one]: in data set [1], the zone of inhibition at 5000 µg/mL was 3 mm. The MIC was > 1250 µg/mL in the data set with Bacillus cereus UW85; > 1250 µg/mL in data set [2]; 625 µg/mL (≈ 2400 µM) in data set [3]; > 1250 µg/mL in data set [4]; > 1250 µg/mL against Candida albicans; > 1250 µg/mL in data set [6]. In data set [5], this compound had an IC50 at 3 days of 17.7 ± 0.71 µM.

In the case of `N#Cc1cn2ncsc2nc1=O` [Compound 3, 6-cyano-7-oxo-7H-[1,3,4]thiadiazolo[3,2-a]pyrimidine], the zone of inhibition at 5000 µg/mL in data set [1] is < 2 mm. Also, the MIC in the data set on Bacillus cereus UW85 is > 1250 µg/mL; in data set [2], > 1250 µg/mL; in data set [3], 1250 µg/mL (≈ 7020 µM); in data set [4], > 1250 µg/mL; in the data set on Candida albicans, > 1250 µg/mL; in data set [6] it was > 1250 µg/mL. In data set [5], this compound yielded an IC50 at 3 days of 7.82 ± 1.33 µM.

Consider `Cc1n[nH]c2c1C1C(=C(N)O2)C(=O)N=C2SC=NN21` (stereo not shown) [Compound 10a, 6-Amino-10-methyl-8,10b-dihydro-5H-pyrazolo[4′,3′:5,6]pyrano[3,4-e][1,3,4]thiadiazolo[3,2-a]pyrimidin-5-one], for which, in data set [1], the zone of inhibition at 5000 µg/mL was 13 mm. In addition, the MIC in the data set on Bacillus cereus UW85 is 625 µg/mL (≈ 2260 µM); in data set [2], 1250 µg/mL (≈ 4520 µM); in data set [3], 625 µg/mL (≈ 2260 µM); in data set [4] it was 312 µg/mL (≈ 1130 µM); in the data set with Candida albicans, 625 µg/mL (≈ 2260 µM); in data set [6], > 1250 µg/mL. Also, the IC50 at 3 days in data set [5] came out at 23.3 ± 0.6 µM.

Regarding `N#CC1=C(c2ccccc2)OC(N)=C2C(=O)N=C3SC=NN3C12` (stereo not shown) [Compound 9b, 6-Amino-9-cyano-5-oxo-8-phenyl-5H,9aH-pyrano[3,4-e][1,3,4]thiadiazolo[3,2-a]pyrimidine], the zone of inhibition at 5000 µg/mL in data set [1] amounted to 3 mm. For the same compound, the MIC with Bacillus cereus UW85 was 156 µg/mL (≈ 482 µM); in data set [2] it was 625 µg/mL (≈ 1930 µM); in data set [3], 312 µg/mL (≈ 966 µM); in data set [4], 625 µg/mL (≈ 1930 µM); in the data set with Candida albicans it was 312 µg/mL (≈ 966 µM); in data set [6] it was > 1250 µg/mL. This compound also registered an IC50 at 3 days in data set [5] of 48.2 ± 1.47 µM.
